# Laboratory results published in patent US20260242419A1, “A CYCLIC PEPTIDE FOR TRAPPING INTERLEUKIN-1 BETA” (Merck Sharp & Dohme LLC, priority 2023, published 2026).
# Starred links: 1 amine or outer side, 2 acyl side, 3 side chain; linkers in the order of their positions; H or OH if unused. Non-standard residues stand in square brackets, D forms with d. Residues, ends and D or L forms follow the SMILES beside them. Groups on a side chain read outwards from the residue. *: point of attachment. dPro(4R-(4-pyridylmethyl)) = O=C(O)[C@H]1C[C@@H](Cc2ccncc2)CN1; Benzoyl(4-piperazinyl) = O=C(c1ccc(N2CCN([*:1])CC2)cc1)[*:2]; Trp(βS-Me,4-F) = C[C@@H](c1c[nH]c2cccc(F)c12)[C@H](N)C(=O)O; dPro(3S-(4-F-Bn)) = O=C(O)[C@@H]1NCC[C@@H]1Cc1ccc(F)cc1; Ala(pyrimidin-5-yl) = N[C@@H](Cc1cncnc1)C(=O)O; Phe(4-COOH) = N[C@@H](Cc1ccc(C(=O)O)cc1)C(=O)O; Phe(4-tBu) = CC(C)(C)c1ccc(C[C@H](N)C(=O)O)cc1; Phe(3-Cl) = N[C@@H](Cc1cccc(Cl)c1)C(=O)O; Phe(4-Br) = N[C@@H](Cc1ccc(Br)cc1)C(=O)O; Pro(cis-4-F) = O=C(O)[C@@H]1C[C@H](F)CN1; Cyclohexanecarbonyl = O=C(C1CCCCC1)*; AEF = NCCOc1ccc(C[C@H](N)C(=O)O)cc1; d(αMeD) = C[C@@](N)(CC(=O)O)C(=O)O; Pyrazinecarbonyl = O=C(c1cnccn1)*; 4Pal = N[C@@H](Cc1ccncc1)C(=O)O; Isonicotinoyl = O=C(c1ccncc1)*; Dab = NCC[C@H](N)C(=O)O; Aib = CC(C)(N)C(=O)O; Inp = O=C(O)C1CCNCC1; Piv = CC(C)(C)C(=O)*; X50 = O=C(c1ccncn1)*; Bz = O=C(c1ccccc1)*; X2 = O=C(c1ncccn1)*
# Biological target: T1, IL-1β (Homo sapiens, UniProt P01584)
# T1 construct: purchased BioLegend 579404
# T1 sequence (P01584 117-269): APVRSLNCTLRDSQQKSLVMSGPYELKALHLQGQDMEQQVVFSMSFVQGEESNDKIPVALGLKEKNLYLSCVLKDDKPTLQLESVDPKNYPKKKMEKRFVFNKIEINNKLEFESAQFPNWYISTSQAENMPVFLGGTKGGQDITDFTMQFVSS
# Assay: IL-6 assay in MRC5 cells: inhibition of IL-1β induced IL-6 secretion (AlphaLISA)
# Type: cell-based
# Settings: inhibition of IL-1β induced IL-6 secretion in MRC5 cells; compound pre-incubated 1 hour with recombinant human IL-1β; read-out: MRC5 IC50
# Summary of the method: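 Compound was pre-incubated 1 h at ambient temperature with recombinant human IL-1β at 2λ EC80 before adding human lung fibroblast MRC5 cells (3000/well) in EMEM with 0.025% BSA. After overnight culture at 37 °C, 5% CO2, secreted IL-6 in conditioned medium was measured by AlphaLISA; IC50 from 4-parameter logistic fits.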
row,IC50 [pM],SMILES
1,12,"C[C@@H](c1c[nH]c2cccc(F)c12)[C@@H]1NC(=O)[C@@H]2C[C@H](F)CN2C(=O)CNC(=O)[C@H](Cc2ccc(C(=O)O)cc2)NC(=O)[C@H](Cc2ccncc2)NC(=O)[C@H](Cc2ccc(Br)cc2)NC(=O)[C@H]2[C@@H](Cc3ccc(F)cc3)CCN2C(=O)CNC(=O)[C@H](CCN)NC(=O)[C@H](CCC(N)=O)NC(=O)[C@H](Cc2cncnc2)NC(=O)[C@@](C)(CC(=O)O)NC(=O)[C@H](Cc2c[nH]c3ccccc23)NC(=O)[C@H](CO)NC(=O)C(C)(C)NC1=O [Example 299] (cyclo([Phe(4-Br)][4Pal][Phe(4-COOH)]G[Pro(cis-4-F)][Trp(βS-Me,4-F)][Aib]SW[d(αMeD)][Ala(pyrimidin-5-yl)]Q[Dab]G[dPro(3S-(4-F-Bn))]))"
2,13,"C[C@@H](c1c[nH]c2cccc(F)c12)[C@@H]1NC(=O)[C@@H]2C[C@H](F)CN2C(=O)CNC(=O)[C@H](Cc2ccc(C(=O)O)cc2)NC(=O)[C@H](Cc2ccncc2)NC(=O)[C@H](Cc2ccc(OCCNC(=O)C(C)(C)C)cc2)NC(=O)[C@H]2C[C@@H](Cc3ccncc3)CN2C(=O)CNC(=O)[C@H](CCN)NC(=O)[C@H](CCC(N)=O)NC(=O)[C@H](Cc2cncnc2)NC(=O)C(C)(C)NC(=O)[C@H](Cc2c[nH]c3ccccc23)NC(=O)[C@H](CO)NC(=O)C(C)(C)NC1=O [Example 300] (cyclo([AEF](Piv)[4Pal][Phe(4-COOH)]G[Pro(cis-4-F)][Trp(βS-Me,4-F)][Aib]SW[Aib][Ala(pyrimidin-5-yl)]Q[Dab]G[dPro(4R-(4-pyridylmethyl))]))"
3,17,"C[C@@H](c1c[nH]c2cccc(F)c12)[C@@H]1NC(=O)[C@@H]2C[C@H](F)CN2C(=O)CNC(=O)[C@H](Cc2ccc(C(=O)O)cc2)NC(=O)[C@H](Cc2ccncc2)NC(=O)[C@H](Cc2ccc(OCCNC(=O)C3CCCCC3)cc2)NC(=O)[C@H]2C[C@@H](Cc3ccncc3)CN2C(=O)CNC(=O)[C@H](CCN)NC(=O)[C@H](CCC(N)=O)NC(=O)[C@H](Cc2cncnc2)NC(=O)C(C)(C)NC(=O)[C@H](Cc2c[nH]c3ccccc23)NC(=O)[C@H](CO)NC(=O)C(C)(C)NC1=O [Example 301] (cyclo([AEF](Cyclohexanecarbonyl)[4Pal][Phe(4-COOH)]G[Pro(cis-4-F)][Trp(βS-Me,4-F)][Aib]SW[Aib][Ala(pyrimidin-5-yl)]Q[Dab]G[dPro(4R-(4-pyridylmethyl))]))"
4,17,"CC(=O)N1CCC(C(=O)NCCOc2ccc(C[C@@H]3NC(=O)[C@H]4C[C@@H](Cc5ccncc5)CN4C(=O)CNC(=O)[C@H](CCN)NC(=O)[C@H](CCC(N)=O)NC(=O)[C@H](Cc4cncnc4)NC(=O)C(C)(C)NC(=O)[C@H](Cc4c[nH]c5ccccc45)NC(=O)[C@H](CO)NC(=O)C(C)(C)NC(=O)[C@H]([C@@H](C)c4c[nH]c5cccc(F)c45)NC(=O)[C@@H]4C[C@H](F)CN4C(=O)CNC(=O)[C@H](Cc4ccc(C(=O)O)cc4)NC(=O)[C@H](Cc4ccncc4)NC3=O)cc2)CC1 [Example 302] (cyclo([AEF]([Inp-Ac])[4Pal][Phe(4-COOH)]G[Pro(cis-4-F)][Trp(βS-Me,4-F)][Aib]SW[Aib][Ala(pyrimidin-5-yl)]Q[Dab]G[dPro(4R-(4-pyridylmethyl))]))"
5,16,"C[C@@H](c1c[nH]c2cccc(F)c12)[C@@H]1NC(=O)[C@@H]2C[C@H](F)CN2C(=O)CNC(=O)[C@H](Cc2ccc(C(=O)O)cc2)NC(=O)[C@H](Cc2ccncc2)NC(=O)[C@H](Cc2ccc(OCCNC(=O)c3cnccn3)cc2)NC(=O)[C@H]2C[C@@H](Cc3ccncc3)CN2C(=O)CNC(=O)[C@H](CCN)NC(=O)[C@H](CCC(N)=O)NC(=O)[C@H](Cc2cncnc2)NC(=O)C(C)(C)NC(=O)[C@H](Cc2c[nH]c3ccccc23)NC(=O)[C@H](CO)NC(=O)C(C)(C)NC1=O [Example 303] (cyclo([AEF](Pyrazinecarbonyl)[4Pal][Phe(4-COOH)]G[Pro(cis-4-F)][Trp(βS-Me,4-F)][Aib]SW[Aib][Ala(pyrimidin-5-yl)]Q[Dab]G[dPro(4R-(4-pyridylmethyl))]))"

# Same assay, conditions: inhibition of IL-1β induced IL-6 secretion in MRC5 cells; read-out: MRC5 IC50
row,SMILES,IC50 [pM]
1,"C[C@@H](c1c[nH]c2cccc(F)c12)[C@@H]1NC(=O)[C@@H]2C[C@H](F)CN2C(=O)CNC(=O)[C@H](Cc2ccc(C(=O)O)cc2)NC(=O)[C@H](Cc2ccncc2)NC(=O)[C@H](Cc2ccc(OCCNC(=O)c3ncccn3)cc2)NC(=O)[C@H]2C[C@@H](Cc3ccncc3)CN2C(=O)CNC(=O)[C@H](CCN)NC(=O)[C@H](CCC(N)=O)NC(=O)[C@H](Cc2cncnc2)NC(=O)C(C)(C)NC(=O)[C@H](Cc2c[nH]c3ccccc23)NC(=O)[C@H](CO)NC(=O)C(C)(C)NC1=O [Example 304] (cyclo([AEF](X2)[4Pal][Phe(4-COOH)]G[Pro(cis-4-F)][Trp(βS-Me,4-F)][Aib]SW[Aib][Ala(pyrimidin-5-yl)]Q[Dab]G[dPro(4R-(4-pyridylmethyl))]))",14
2,"C[C@@H](c1c[nH]c2cccc(F)c12)[C@@H]1NC(=O)[C@@H]2C[C@H](F)CN2C(=O)CNC(=O)[C@H](Cc2ccc(C(=O)O)cc2)NC(=O)[C@H](Cc2ccncc2)NC(=O)[C@H](Cc2ccc(OCCNC(=O)c3ccncn3)cc2)NC(=O)[C@H]2C[C@@H](Cc3ccncc3)CN2C(=O)CNC(=O)[C@H](CCN)NC(=O)[C@H](CCC(N)=O)NC(=O)[C@H](Cc2cncnc2)NC(=O)C(C)(C)NC(=O)[C@H](Cc2c[nH]c3ccccc23)NC(=O)[C@H](CO)NC(=O)C(C)(C)NC1=O [Example 305] (cyclo([AEF](X50)[4Pal][Phe(4-COOH)]G[Pro(cis-4-F)][Trp(βS-Me,4-F)][Aib]SW[Aib][Ala(pyrimidin-5-yl)]Q[Dab]G[dPro(4R-(4-pyridylmethyl))]))",16

# Second part, the compound after the results:
row,IC50 [pM],SMILES
1,20,"C[C@@H](c1c[nH]c2cccc(F)c12)[C@@H]1NC(=O)[C@@H]2C[C@H](F)CN2C(=O)CNC(=O)[C@H](Cc2ccc(C(=O)O)cc2)NC(=O)[C@H](Cc2ccncc2)NC(=O)[C@H](Cc2ccc(OCCNC(=O)c3ccc(N4CCNCC4)cc3)cc2)NC(=O)[C@H]2C[C@@H](Cc3ccncc3)CN2C(=O)CNC(=O)[C@H](CCN)NC(=O)[C@H](CCC(N)=O)NC(=O)[C@H](Cc2cncnc2)NC(=O)C(C)(C)NC(=O)[C@H](Cc2c[nH]c3ccccc23)NC(=O)[C@H](CO)NC(=O)C(C)(C)NC1=O [Example 306] (cyclo([AEF](Benzoyl(4-piperazinyl))[4Pal][Phe(4-COOH)]G[Pro(cis-4-F)][Trp(βS-Me,4-F)][Aib]SW[Aib][Ala(pyrimidin-5-yl)]Q[Dab]G[dPro(4R-(4-pyridylmethyl))]))"
2,18,"C[C@@H](c1c[nH]c2cccc(F)c12)[C@@H]1NC(=O)[C@@H]2C[C@H](F)CN2C(=O)CNC(=O)[C@H](Cc2ccc(C(=O)O)cc2)NC(=O)[C@H](Cc2ccncc2)NC(=O)[C@H](Cc2ccc(OCCNC(=O)c3ccncc3)cc2)NC(=O)[C@H]2C[C@@H](Cc3ccncc3)CN2C(=O)CNC(=O)[C@H](CCN)NC(=O)[C@H](CCC(N)=O)NC(=O)[C@H](Cc2cncnc2)NC(=O)C(C)(C)NC(=O)[C@H](Cc2c[nH]c3ccccc23)NC(=O)[C@H](CO)NC(=O)C(C)(C)NC1=O [Example 307] (cyclo([AEF](Isonicotinoyl)[4Pal][Phe(4-COOH)]G[Pro(cis-4-F)][Trp(βS-Me,4-F)][Aib]SW[Aib][Ala(pyrimidin-5-yl)]Q[Dab]G[dPro(4R-(4-pyridylmethyl))]))"
3,13,"C[C@@H](c1c[nH]c2cccc(F)c12)[C@@H]1NC(=O)[C@@H]2C[C@H](F)CN2C(=O)CNC(=O)[C@H](Cc2ccc(C(=O)O)cc2)NC(=O)[C@H](Cc2ccncc2)NC(=O)[C@H](Cc2ccc(OCCNC(=O)c3ccccc3)cc2)NC(=O)[C@H]2C[C@@H](Cc3ccncc3)CN2C(=O)CNC(=O)[C@H](CCN)NC(=O)[C@H](CCC(N)=O)NC(=O)[C@H](Cc2cncnc2)NC(=O)C(C)(C)NC(=O)[C@H](Cc2c[nH]c3ccccc23)NC(=O)[C@H](CO)NC(=O)C(C)(C)NC1=O [Example 308] (cyclo([AEF](Bz)[4Pal][Phe(4-COOH)]G[Pro(cis-4-F)][Trp(βS-Me,4-F)][Aib]SW[Aib][Ala(pyrimidin-5-yl)]Q[Dab]G[dPro(4R-(4-pyridylmethyl))]))"
4,18,"CC(=O)NCCOc1ccc(C[C@@H]2NC(=O)[C@H]3C[C@@H](Cc4ccncc4)CN3C(=O)CNC(=O)[C@H](CCN)NC(=O)[C@H](CCC(N)=O)NC(=O)[C@H](Cc3cccc(Cl)c3)NC(=O)C(C)(C)NC(=O)[C@H](Cc3c[nH]c4ccccc34)NC(=O)[C@H](CCC(=O)O)NC(=O)C(C)(C)NC(=O)[C@H]([C@@H](C)c3c[nH]c4cccc(F)c34)NC(=O)[C@@H]3C[C@H](F)CN3C(=O)CNC(=O)[C@H](Cc3ccc(C(=O)O)cc3)NC(=O)[C@H](Cc3ccncc3)NC2=O)cc1 [Example 309] (cyclo([AEF](Ac)[4Pal][Phe(4-COOH)]G[Pro(cis-4-F)][Trp(βS-Me,4-F)][Aib]EW[Aib][Phe(3-Cl)]Q[Dab]G[dPro(4R-(4-pyridylmethyl))]))"
5,17,"CC(=O)NCCOc1ccc(C[C@@H]2NC(=O)[C@H]3C[C@@H](Cc4ccncc4)CN3C(=O)CNC(=O)[C@H](CCN)NC(=O)[C@H](CCC(N)=O)NC(=O)[C@H](Cc3ccc(O)cc3)NC(=O)C(C)(C)NC(=O)[C@H](Cc3c[nH]c4ccccc34)NC(=O)[C@H](CCC(=O)O)NC(=O)C(C)(C)NC(=O)[C@H]([C@@H](C)c3c[nH]c4cccc(F)c34)NC(=O)[C@@H]3C[C@H](F)CN3C(=O)CNC(=O)[C@H](Cc3ccc(C(=O)O)cc3)NC(=O)[C@H](Cc3ccncc3)NC2=O)cc1 [Example 310] (cyclo([AEF](Ac)[4Pal][Phe(4-COOH)]G[Pro(cis-4-F)][Trp(βS-Me,4-F)][Aib]EW[Aib]YQ[Dab]G[dPro(4R-(4-pyridylmethyl))]))"
6,17,"C[C@@H](c1c[nH]c2cccc(F)c12)[C@@H]1NC(=O)[C@@H]2C[C@H](F)CN2C(=O)CNC(=O)[C@H](Cc2ccc(C(=O)O)cc2)NC(=O)[C@H](Cc2ccncc2)NC(=O)[C@H](Cc2ccc(C(C)(C)C)cc2)NC(=O)[C@H]2C[C@@H](Cc3ccncc3)CN2C(=O)CNC(=O)[C@H](CCN)NC(=O)[C@H](CCC(N)=O)NC(=O)[C@H](Cc2cncnc2)NC(=O)C(C)(C)NC(=O)[C@H](Cc2c[nH]c3ccccc23)NC(=O)[C@H](CCC(=O)O)NC(=O)C(C)(C)NC1=O [Example 311] (cyclo([Phe(4-tBu)][4Pal][Phe(4-COOH)]G[Pro(cis-4-F)][Trp(βS-Me,4-F)][Aib]EW[Aib][Ala(pyrimidin-5-yl)]Q[Dab]G[dPro(4R-(4-pyridylmethyl))]))"
